# In patent US9809808B2, “Antimicrobial agents” (KATHOLIEKE UNIVERSITEIT LEUVEN K.U. LEUVEN R&D, priority 2008, dated 2017):
# Like-named read-outs stand apart in the source and are kept apart here.
# Test system: Burkholderia solanacearum
# Format: cell-based
# Conditions: 100 μg/ml undialyzed protein, 1 hour, room temperature
Molecule,Reduction [%] (relative inactivation),Reduction [%] (relative inactivation) (listed as POLYKZ144)
phiKZgp144: SEQ ID NO: 1: unmodified modular endolysin originating from Pseudomonas aeruginosa phage φKZ [reference compound],0,–
"POLY-gp144: SEQ ID NO: 35: phiKZgp144 (SEQ ID NO: 1) with N-terminal peptide stretch KRKKRKKRK (SEQ ID NO: 11) (protein, POLY-gp144) MGSKRKKRKKRKKVLRKGDRGDEVCQLQTLLNLCGYDVGKPDGIFGNNTFNQVVKFQKDNCLDSDGIVGKNTWAELFSKYSPPIPYKTIPMPTANKSRAAATPVMNAVENATGVRSQLLLTFASIESAFDYEIKAKTSSATGWFQFLTGTWKTMIENYGMKYGVLTDPTGALRKDPRISALMGAELIKENMNILRPVLKREPTDTDLYLAHFFGPGAARRFLTTGQNELAATHFPKEAQANPSIFYNKDGSPKTIQEVYNLMDGKVAAHRK",–,99-99.9%
